# According to patent US11708564B2 (priority 2017, dated 2023):
# System: active D-proline reductase
# Test: Conversion of D-proline analog substrates by E. coli cells expressing active D-proline reductase (PrdA, PrdB, PrdH), TLC analysis
# Assay type: biochemical, Peptoclostridium difficile 630
# Conditions: substrate 10 mM, DTT 25 mM, 6 hours, E. coli BL21(DE3) cells OD 50 in 0.1 M phosphate buffer pH 8.0, TLC
# Protocol: The obtained E. coli cells were adjusted to a final OD of 50, followed by centrifugation. After primary washing, E. coli cells were diluted with 1 mL of 0.1 M phosphate buffer (pH 8.0). Next, each 200 ul of the diluted samples was dispensed, and DTT (final concentration of 25 mM) and various substrates (final concentration of 10 mM, FIG. 11A) were added and allowed to react for 6 hours, followed by TLC analysis.
# When cis-4-hydroxy-D-proline or trans-4-hydroxy-D-proline is subjected to the conversion reaction, 5-amino-4-hydroxypentanoic acid is produced.
SMILES,product formation on TLC after the conversion reaction,"reaction rate of the conversion by D-proline reductase, compared with D-proline"
O=C(O)[C@H]1CCN1 [D-azetidine-2-carboxylic acid],GABA production was clearly observed on TLC,"relatively low reaction rate, as compared with D-proline"
O=C(O)[C@H]1C[C@@H](O)CN1 [cis-4-hydroxy-D-proline],substrate reduction on TLC and newly formed TLC spot were observed,"relatively low reaction rate, as compared with D-proline"
O=C(O)[C@H]1C[C@H](O)CN1 [trans-4-hydroxy-D-proline],substrate reduction on TLC and newly formed TLC spot were observed,"relatively low reaction rate, as compared with D-proline"
